Test results taken from patent publication US20240218022A1, “ANTI-VISTA MACROCYCLIC PEPTIDES AND COMPOSITIONS” (BRISTOL-MYERS SQUIBB COMPANY, priority 2022, published 2024).
Where two headings read alike, the source gives them in different places. One block for each compound: values may come before it. Starred links: 1 amine or outer side, 2 acyl side, 3 side chain; linkers in the order of their positions; H or OH if unused. Positions of bridges follow the written chain, without caps; N, C: chain ends. Non-standard residues stand in square brackets, D forms with d. Residues, ends and D or L forms follow the SMILES beside them. Phe(3-Me) = Cc1cccc(C[C@H](N)C(=O)O)c1; 2Nal = N[C@@H](Cc1ccc2ccccc2c1)C(=O)O; βAsp = O=C(O)[C@H](CC(=O)[*:2])N[*:1]; Cit = NC(=O)NCCC[C@H](N)C(=O)O; NMeL = CN[C@@H](CC(C)C)C(=O)O; Ahp(2) = CCCCC[C@H](N)C(=O)O; NMeNle = CCCC[C@H](NC)C(=O)O; Tle = CC(C)(C)[C@H](N)C(=O)O; NHexGly = CCCCCCNCC(=O)O; Nle = CCCC[C@H](N)C(=O)O; Aun = NCCCCCCCCCCC(=O)O; Aze = O=C(O)[C@@H]1CCN1; AEEA = NCCOCCOCC(=O)O

Target: T1, mouse VISTA (mVISTA) (Mus musculus, UniProt Q9D659)
T1 construct: expressed in transfected cells; host or cells: Human embryonic kidney 293T cells
T1 sequence (Q9D659 33-308): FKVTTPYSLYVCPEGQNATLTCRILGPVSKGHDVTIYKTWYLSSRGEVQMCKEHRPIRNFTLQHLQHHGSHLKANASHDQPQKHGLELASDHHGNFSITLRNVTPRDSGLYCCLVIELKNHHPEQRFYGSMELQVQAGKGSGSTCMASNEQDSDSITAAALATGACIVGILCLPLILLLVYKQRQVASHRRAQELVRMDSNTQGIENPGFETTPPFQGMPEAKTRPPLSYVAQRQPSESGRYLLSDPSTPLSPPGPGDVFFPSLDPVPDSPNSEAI
Test: Cell-Based Binding High-Content Assay For mVISTA (HC CBA mVISTA)
Summary of the method: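 Read-out: Alexa 647–streptavidin signal imaged on fixed, Hoechst-stained mVISTA-293T cells, with IC50 taken from a four-parameter logistic curve. Compounds competed with 2 nM biotinylated peptide for 30 min at room temperature, tested under both no-wash and wash (1 h compound, media exchange, 1 h) formats.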

[1] = the 19th table, scaffold drawing 22, read-out: HC CBA mVISTA IC50

SMILES: CCCCCCN1CC(=O)N[C@@H](Cc2ccc(O)cc2)C(=O)N[C@@H](CCCC)C(=O)N[C@@H](CC(N)=O)C(=O)N[C@@H](CCCNC(=N)N)C(=O)N(C)[C@@H](CC(C)C)C(=O)N[C@@H](CCCCC)C(=O)N2CCC[C@H]2C(=O)N[C@@H](C(C)C)C(=O)N[C@@H](CC(=O)O)C(=O)N[C@H](C(=O)NCC(=O)O)CSCC(=O)N[C@@H](Cc2ccccc2)C(=O)N[C@@H](Cc2c[nH]c3ccccc23)C(=O)N[C@@H](CC(=O)O)C1=O [Example 1369] ({CH2CO}-FWD[NHexGly]Y[Nle]NR[NMeL][Ahp(2)]PVDCG-OH; thioether N-14)
IC50 (read-out: HC CBA mVISTA IC50): 0.0035 µM

SMILES: CCCCCCN1CC(=O)N[C@@H](Cc2ccc(O)cc2)C(=O)N[C@@H](CCCC)C(=O)N[C@@H](CC(N)=O)C(=O)N[C@@H](CCCNC(=N)N)C(=O)N(C)[C@@H](CCCC)C(=O)N[C@@H](CCCCC)C(=O)N2CC[C@H]2C(=O)N[C@@H](C(C)(C)C)C(=O)N[C@@H](CO)C(=O)N[C@H](C(=O)N[C@@H](CC(=O)NCCOCCOCC(=O)NCCCCCCCCCCC(=O)O)C(=O)O)CSCC(=O)N[C@@H](Cc2ccccc2)C(=O)N[C@@H](Cc2c[nH]c3ccccc23)C(=O)N[C@@H](CC(=O)O)C1=O [Example 2187] ({CH2CO}-FWD[NHexGly]Y[Nle]NR[NMeNle][Ahp(2)][Aze][Tle]SC[βAsp][AEEA][Aun]-OH; thioether N-14)
IC50 (read-out: HC CBA mVISTA IC50): 0.0133 µM

SMILES: CCCCCCN1CC(=O)N[C@@H](Cc2ccc(O)cc2)C(=O)N[C@@H](C(C)C)C(=O)NCC(=O)N[C@@H](CCCNC(=N)N)C(=O)N[C@@H](CC(C)C)C(=O)N[C@@H](CCCCC)C(=O)N2CCC[C@H]2C(=O)N[C@@H](C(C)C)C(=O)N[C@@H](CC(=O)O)C(=O)N[C@H](C(=O)N[C@@H](CO)C(=O)N[C@@H](CCCCN)C(=O)N[C@@H](CCC(N)=O)C(=O)O)CSCC(=O)N[C@@H](Cc2ccc3ccccc3c2)C(=O)N[C@@H](Cc2ccc(O)cc2)C(=O)N[C@@H](CC(=O)O)C1=O [Example 1165] ({CH2CO}-[2Nal]YD[NHexGly]YVGRL[Ahp(2)]PVDCSKQ-OH; thioether N-14)
IC50 (293T cells expressing mouse VISTA, competition with biotinylated peptide (2 nM), read-out: HC CBA mVISTA IC50): 0.0282 µM

SMILES: CCCCCCN1CC(=O)N[C@@H](Cc2ccc(O)cc2)C(=O)N[C@@H](CCCC)C(=O)N[C@@H](CC(=O)O)C(=O)N[C@@H](CCCNC(=N)N)C(=O)N[C@@H](CC(C)C)C(=O)N[C@@H](CCCCC)C(=O)N2CCC[C@H]2C(=O)N[C@@H](C(C)C)C(=O)N[C@@H](CC(=O)O)C(=O)N[C@H](C(=O)N[C@@H](CC(=O)O)C(N)=O)CSCC(=O)N[C@@H](Cc2cccc(C)c2)C(=O)N[C@@H](Cc2c[nH]c3ccccc23)C(=O)N[C@@H](CC(=O)O)C1=O [compound 1419] ({CH2CO}-[Phe(3-Me)]WD[NHexGly]Y[Nle]DRL[Ahp(2)]PVDCD-NH2; thioether N-14)
IC50 [1]: 0.0081 µM

More lines, now with the values ahead:

IC50 [1]: 0.0182 µM
SMILES: CCCCCCN1CC(=O)N[C@@H](Cc2ccc(O)cc2)C(=O)N[C@@H](CCCC)C(=O)N[C@@H](CC(=O)O)C(=O)N[C@@H](CCCNC(=N)N)C(=O)N[C@@H](CC(C)C)C(=O)N[C@@H](CCCCC)C(=O)N2CCC[C@H]2C(=O)N[C@@H](C(C)C)C(=O)N[C@@H](CC(=O)O)C(=O)N[C@H](C(=O)N[C@@H](CO)C(N)=O)CSCC(=O)N[C@@H](Cc2cccc(C)c2)C(=O)N[C@@H](Cc2ccc(O)cc2)C(=O)N[C@@H](CC(=O)O)C1=O [compound 1437] ({CH2CO}-[Phe(3-Me)]YD[NHexGly]Y[Nle]DRL[Ahp(2)]PVDCS-NH2; thioether N-14)

IC50 (cell-based binding high-content assay, mVISTA, read-out: HC CBA miPr ISTA IC50): 0.0144 µM
SMILES: CCCCCCN1CC(=O)N[C@@H](Cc2ccc(O)cc2)C(=O)N[C@@H](CCCC)C(=O)NCC(=O)N[C@@H](CCCNC(N)=O)C(=O)N[C@@H](CC(C)C)C(=O)N[C@@H](CCCCC)C(=O)N2CCC[C@H]2C(=O)N[C@@H](C(C)C)C(=O)N[C@@H](CC(=O)O)C(=O)N[C@H](C(=O)NCC(=O)NCCOCCOCC(=O)N[C@@H](CC(=O)O)C(=O)NCCOCCOCC(=O)NCCCCCCCCCCC(=O)O)CSCC(=O)N[C@@H](Cc2cccc(C)c2)C(=O)N[C@@H](Cc2ccc(O)cc2)C(=O)N[C@@H](CC(=O)O)C1=O [compound 2019] ({CH2CO}-[Phe(3-Me)]YD[NHexGly]Y[Nle]G[Cit]L[Ahp(2)]PVDCG[AEEA]D[AEEA][Aun]-OH; thioether N-14)

IC50 (cell-based binding high-content assay, read-out: HC CBA miPrISTA IC50): 0.0281 µM
SMILES: CCCCCCN1CC(=O)N[C@@H](Cc2ccc(O)cc2)C(=O)N[C@@H](CCCC)C(=O)N[C@@H](CC(N)=O)C(=O)N[C@@H](CCCNC(=N)N)C(=O)N(C)[C@@H](CC(C)C)C(=O)N[C@@H](CCCCC)C(=O)N2CCC[C@H]2C(=O)N[C@@H](C(C)C)C(=O)N[C@@H](CO)C(=O)N[C@H](C(=O)NCCOCCOCC(=O)N[C@@H](CC(=O)O)C(=O)NCCOCCOCC(=O)NCCCCCCCCCCC(=O)O)CSCC(=O)N[C@@H](Cc2ccc3ccccc3c2)C(=O)N[C@@H](Cc2ccc(O)cc2)C(=O)N[C@@H](CC(=O)O)C1=O [compound 2313] ({CH2CO}-[2Nal]YD[NHexGly]Y[Nle]NR[NMeL][Ahp(2)]PVSC[AEEA]D[AEEA][Aun]-OH; thioether N-14)
